Experimental data taken from publication PMC4154125, “Crystal structures of highly specific phosphinic tripeptide enantiomers in complex with the angiotensin‐I converting enzyme” (The Febs Journal, 2013).

Experiments:
AnCE [1] = molecular target: T1, AnCE (Drosophila melanogaster, UniProt Q10714); assay: inhibition of hippuryl-histidyl-leucine hydrolysis, Ki from IC50 (Cheng-Prusoff); assay type: biochemical; settings: read-out: apparent Ki
T1 construct: recombinant single-domain enzyme, secreted from Pichia pastoris, purified
T1 sequence (Q10714 18-615): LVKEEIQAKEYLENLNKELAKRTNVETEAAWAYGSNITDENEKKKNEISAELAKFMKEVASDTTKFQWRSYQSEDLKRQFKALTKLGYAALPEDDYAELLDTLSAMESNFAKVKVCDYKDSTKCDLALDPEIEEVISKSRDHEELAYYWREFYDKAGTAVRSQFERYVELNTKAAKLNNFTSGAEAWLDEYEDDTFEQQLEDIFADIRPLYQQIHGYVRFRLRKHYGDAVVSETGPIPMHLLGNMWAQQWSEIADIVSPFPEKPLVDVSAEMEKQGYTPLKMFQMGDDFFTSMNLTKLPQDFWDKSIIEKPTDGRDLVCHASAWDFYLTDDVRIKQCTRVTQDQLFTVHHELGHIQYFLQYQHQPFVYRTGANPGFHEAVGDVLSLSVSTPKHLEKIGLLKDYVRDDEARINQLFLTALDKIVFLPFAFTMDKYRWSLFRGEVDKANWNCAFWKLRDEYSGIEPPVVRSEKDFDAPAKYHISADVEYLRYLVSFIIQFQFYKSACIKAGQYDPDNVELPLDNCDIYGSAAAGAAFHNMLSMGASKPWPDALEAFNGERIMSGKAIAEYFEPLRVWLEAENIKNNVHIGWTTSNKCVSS

AnCE [2] = molecular target: T1, AnCE; assay: inhibition of hippuryl-histidyl-leucine hydrolysis; assay type: biochemical
C-ACE = molecular target: T2, C-ACE (Homo sapiens, UniProt P12821); assay: X-ray crystal structure, […] Å; assay type: binding; settings: co-crystal, pH 4.0 reservoir; active site, zinc coordination
T2 construct: tACEΔ36-g13, truncated underglycosylated variant of testis ACE (C-domain), CHO cells, purified
T2 sequence (P12821 642-1230): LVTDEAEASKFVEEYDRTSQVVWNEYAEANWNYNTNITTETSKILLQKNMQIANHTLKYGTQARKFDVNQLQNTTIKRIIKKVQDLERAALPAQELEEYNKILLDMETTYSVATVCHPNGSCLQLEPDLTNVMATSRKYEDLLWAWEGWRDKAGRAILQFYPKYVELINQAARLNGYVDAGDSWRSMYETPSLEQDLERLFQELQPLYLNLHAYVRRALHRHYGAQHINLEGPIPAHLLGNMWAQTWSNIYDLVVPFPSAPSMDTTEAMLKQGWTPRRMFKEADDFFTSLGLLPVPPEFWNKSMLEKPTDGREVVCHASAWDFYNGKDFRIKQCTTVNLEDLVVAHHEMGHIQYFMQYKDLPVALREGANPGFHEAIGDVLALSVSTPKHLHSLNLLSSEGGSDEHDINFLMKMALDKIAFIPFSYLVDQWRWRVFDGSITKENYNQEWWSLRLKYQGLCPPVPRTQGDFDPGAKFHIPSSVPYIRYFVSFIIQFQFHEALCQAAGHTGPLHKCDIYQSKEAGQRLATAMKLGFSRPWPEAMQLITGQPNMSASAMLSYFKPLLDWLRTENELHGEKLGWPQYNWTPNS

Ki (AnCE [1]) [nM]	IC50 (AnCE [2]) [nM]	SMILES	X-ray crystal structure, 1.85 Å (C-ACE)
24	44	O=C(N[C@@H](Cc1ccccc1)P(=O)(O)C[C@@H](Cc1cc(-c2ccccc2)no1)C(=O)N[C@@H](Cc1ccc(O)cc1)C(=O)O)OCc1ccccc1 [FI, (2S)‐2‐({3‐[hydroxyl (2‐phenyl‐(1R)‐1‐{[(benzyloxy)carbonyl]‐amino}ethyl)phosphinyl]‐2‐[(3‐phenylisoxazol‐5‐yl)methyl]‐1‐oxo‐propyl}amino)‐3‐(4‐hydroxy‐phenyl) propanoic acid]	One bound inhibitor molecule was modelled in the catalytic site of C‐ACE
120	210	O=C(N[C@@H](Cc1ccccc1)P(=O)(O)C[C@H](Cc1cc(-c2ccccc2)no1)C(=O)N[C@@H](Cc1ccc(O)cc1)C(=O)O)OCc1ccccc1 [FII, (2S)‐2‐({3‐[hydroxyl (2‐phenyl‐(1R)‐1‐{[(benzyloxy)carbonyl]‐amino}ethyl)phosphinyl]‐2‐[(3‐phenylisoxazol‐5‐yl)methyl]‐1‐oxo‐propyl}amino)‐3‐(4‐hydroxy‐phenyl) propanoic acid]	–
